Biological target: T1, HIF-PH2 (EGLN1) (Homo sapiens, UniProt Q9GZT9)
T1 construct: made in house; host or cells: insect Hi5 cells
Experiment: HIF-PH assay (14CO2 capture, peptide-dependent turnover)
Type: biochemical
Details: Concentration 22.22 μM
Text: Ketoglutaric acid α-[1-^14C]-sodium salt, alpha-ketoglutaric acid sodium salt, and HPLC purified peptide may be obtained from commercial sources, e.g., Perkin-Elmer (Wellesley Mass.), Sigma-Aldrich, and SynPep Corp. (Dublin Calif.), respectively. Peptides for use in the assay may be fragments of HIFα as described above or as disclosed in International Publication WO 2005/118836, incorporated by reference herein. For example, a HLF peptide for use in the HIF-PH assay is [methoxycoumarin]-DLDLEALAPYIPADDDFQL-amide. HIF-PH, e.g., HIF-PH2 (EGLN1), can be expressed in, e.g., insect Hi5 cells, and partially purified, e.g., through a SP ion exchange chromatography column. Enzyme activity is determined by capturing ^14CO2 using an assay described by Kivirikko and Myllyla (1982, Methods Enzymol. 82:245-304). Assay reactions contain 50 mM HEPES (pH 7.4), 100 μM α-ketoglutaric acid sodium salt, 0.30 μCi/mL ketoglutaric acid α-[1-^14C]-sodium salt, 40 μM FeSO4, 1 mM ascorbate, 1541.8 units/mL Catalase, with or without 50 μM peptide substrate and various concentrations of compound of the invention. Reactions are initiated by addition of HIF-PH enzyme.
The peptide-dependent percent turnover is calculated by subtracting percent turnover in the absence of peptide from percent turnover in the presence of substrate peptide. Percent inhibition and IC50 are calculated using peptide-dependent percent turnover at given inhibitor concentrations. Calculation of IC50 values for each inhibitor is conducted using GraFit software (Erithacus Software Ltd., Surrey UK). […]

T1 sequence (Q9GZT9 whole entry, species assumed): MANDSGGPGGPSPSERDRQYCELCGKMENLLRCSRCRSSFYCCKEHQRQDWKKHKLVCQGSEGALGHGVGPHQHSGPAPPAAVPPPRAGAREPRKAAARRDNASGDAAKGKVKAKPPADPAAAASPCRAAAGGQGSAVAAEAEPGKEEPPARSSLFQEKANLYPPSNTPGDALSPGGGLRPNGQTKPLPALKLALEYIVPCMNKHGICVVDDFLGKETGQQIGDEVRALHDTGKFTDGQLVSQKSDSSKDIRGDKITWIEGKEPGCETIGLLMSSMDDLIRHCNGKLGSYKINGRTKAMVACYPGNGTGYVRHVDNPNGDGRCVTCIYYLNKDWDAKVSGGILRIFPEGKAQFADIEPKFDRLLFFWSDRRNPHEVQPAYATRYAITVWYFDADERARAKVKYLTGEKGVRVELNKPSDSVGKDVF

First: O=C(O)CNC(=O)c1ncc2onc(-c3ccc(F)cc3)c2c1O [Example 19, {[3-(4-Fluoro-phenyl)-4-hydroxy-isoxazolo[5,4-c]pyridine-5-carbonyl]-amino}-acetic acid]
Second: O=C(O)CNC(=O)c1ncc2onc(-c3ccc(C(F)(F)F)cc3)c2c1O [Example 34, {[4-Hydroxy-3-(4-trifluoromethyl-phenyl)-isoxazolo[5,4-c]pyridine-5-carbonyl]-amino}-acetic acid]
The inhibition at 22.22 µM of the first is higher: 97.9% for the first, 97.8% for the second.

Compared with `O=C(O)CNC(=O)c1nc(C(F)(F)F)c2onc(-c3ccccc3)c2c1O` [Example 38, [(4-Hydroxy-3-phenyl-7-trifluoromethyl-isoxazolo[5,4-c]pyridine-5-carbonyl)-amino]-acetic acid], `Cc1noc2c(-c3ccccc3)nc(C(=O)NCC(=O)O)c(O)c12` [Example 71, [(4-Hydroxy-3-methyl-7-phenyl-isoxazolo[5,4-c]pyridine-5-carbonyl)-amino]-acetic acid] is lower in inhibition at 22.22 µM: 97.8% for the first, 97.5% for the second.

Going from `Cc1nc(C(=O)NCC(=O)O)c(O)c2c(-c3ccc(OC(F)(F)F)cc3)noc12` [Example 73, {[4-Hydroxy-7-methyl-3-(4-trifluoromethoxy-phenyl)-isoxazolo[5,4-c]pyridine-5-carbonyl]-amino}-acetic acid] to `Cc1nc(C(=O)NCC(=O)O)c(O)c2c(-c3ccc(F)cc3)noc12` [Example 26, {[3-(4-Fluoro-phenyl)-4-hydroxy-7-methyl-isoxazolo[5,4-c]pyridine-5-carbonyl]-amino}-acetic acid], the inhibition at 22.22 µM falls from 97.4% to 93.8%.

Compared with `O=C(O)CNC(=O)c1nc(-c2ccncc2)c2onc(-c3ccccc3)c2c1O` [Example 36, [(4-Hydroxy-3-phenyl-7-pyridin-4-yl-isoxazolo[5,4-c]pyridine-5-carbonyl)-amino]-acetic acid], `O=C(O)CNC(=O)c1nc(-c2ccccn2)c2onc(-c3ccccc3)c2c1O` [Example 37, [(4-Hydroxy-3-phenyl-7-pyridin-2-yl-isoxazolo[5,4-c]pyridine-5-carbonyl)-amino]-acetic acid] is higher in inhibition at 22.22 µM: 98.5% for the first, 99.6% for the second.

First: COc1ccc(-c2noc3c(O)c(C(=O)NCC(=O)O)nc(-c4ccccc4)c23)cc1 [Example 55, {[7-Hydroxy-3-(4-methoxy-phenyl)-4-phenyl-isoxazolo[4,5-c]pyridine-6-carbonyl]-amino}-acetic acid]
Second: O=C(O)CNC(=O)c1ncc2onc(-c3ccc(Oc4ccccc4)cc3)c2c1O [Example 69, {[4-Hydroxy-3-(4-phenoxy-phenyl)-isoxazolo[5,4-c]pyridine-5-carbonyl]-amino}-acetic acid]
The inhibition at 22.22 µM of the first is lower: 98.9% for the first, 99.8% for the second.

Going from `CS(=O)(=O)c1ccc(-c2noc3cnc(C(=O)NCC(=O)O)c(O)c23)cc1` [Example 76, {[4-Hydroxy-3-(4-methanesulfonyl-phenyl)-isoxazolo[5,4-c]pyridine-5-carbonyl]-amino}-acetic acid] to `O=C(O)CNC(=O)c1ncc2onc(-c3ccc(OC(F)(F)F)cc3)c2c1O` [Example 39, {[4-Hydroxy-3-(4-trifluoromethoxy-phenyl)-isoxazolo[5,4-c]pyridine-5-carbonyl]-amino}-acetic acid], the inhibition at 22.22 µM falls from 99.4% to 98.7%.

First: C#Cc1nc(C(=O)NCC(=O)O)c(O)c2c(-c3ccc(Cl)cc3)noc12 [Example 28, {[3-(4-Chloro-phenyl)-7-ethynyl-4-hydroxy-isoxazolo[5,4-c]pyridine-5-carbonyl]-amino}-acetic acid]
Second: N#Cc1nc(C(=O)NCC(=O)O)c(O)c2c(-c3ccc(Cl)cc3)noc12 [Example 25, {[3-(4-Chloro-phenyl)-7-cyano-4-hydroxy-isoxazolo[5,4-c]pyridine-5-carbonyl]-amino}-acetic acid]
The inhibition at 22.22 µM of the first is lower: 96.7% for the first, 98.7% for the second.

Going from `O=C(O)CNC(=O)c1nc(C#Cc2ccccc2)c2c(-c3ccccc3)noc2c1O` [Example 57, [(7-Hydroxy-3-phenyl-4-phenylethynyl-isoxazolo[4,5-c]pyridine-6-carbonyl)-amino]-acetic acid] to `O=C(O)CNC(=O)c1nc(Br)c2onc(-c3ccc(Cl)cc3)c2c1O` [Example 24, {[7-Bromo-3-(4-chloro-phenyl)-4-hydroxy-isoxazolo[5,4-c]pyridine-5-carbonyl]-amino}-acetic acid], the inhibition at 22.22 µM rises from 98.6% to 100%.

Compared with `O=C(O)CNC(=O)c1ncc2onc(-c3cccc(Cl)c3)c2c1O` [Example 17, {[3-(3-Chloro-phenyl)-4-hydroxy-isoxazolo[5,4-c]pyridine-5-carbonyl]-amino}-acetic acid], `Cc1nc(C(=O)NCC(=O)O)c(O)c2c(C)noc12` [Example 72, [(4-Hydroxy-3,7-dimethyl-isoxazolo[5,4-c]pyridine-5-carbonyl)-amino]-acetic acid] is lower in inhibition at 22.22 µM: 98.6% for the first, 94.6% for the second.

Same assay, conditions: Concentration 200.00 μM

Going from `Cc1nc(C(=O)NCC(=O)O)c(O)c2c(-c3ccc(Cl)cc3)noc12` [Example 21, {[3-(4-Chloro-phenyl)-4-hydroxy-7-methyl-isoxazolo[5,4-c]pyridine-5-carbonyl]-amino}-acetic acid] to `COc1ccc(-c2noc3c(O)c(C(=O)NCC(=O)O)nc(C)c23)cc1` [Example 56, {[7-Hydroxy-3-(4-methoxy-phenyl)-4-methyl-isoxazolo[4,5-c]pyridine-6-carbonyl]-amino}-acetic acid], the inhibition at 200 µM falls from 99.4% to 98.9%.

Going from `O=C(O)CNC(=O)c1ncc2c(-c3cccs3)noc2c1O` [Example 47, [(7-Hydroxy-3-thiophen-2-yl-isoxazolo[4,5-c]pyridine-6-carbonyl)-amino]-acetic acid] to `N#Cc1nc(C(=O)NCC(=O)O)c(O)c2onc(-c3cccs3)c12` [Example 51, [(4-Cyano-7-hydroxy-3-thiophen-2-yl-isoxazolo[4,5-c]pyridine-6-carbonyl)-amino]-acetic acid], the inhibition at 200 µM falls from 99% to 98.8%.

Going from `O=C(O)CNC(=O)c1nc(-c2ccc(F)cc2)c2nc(-c3ccccc3)oc2c1O` [Example 8, {[4-(4-Fluoro-phenyl)-7-hydroxy-2-phenyl-oxazolo[4,5-c]pyridine-6-carbonyl]-amino}-acetic acid] to `COc1cccc(-c2nc(C(=O)NCC(=O)O)c(O)c3oc(-c4ccccc4)nc23)c1` [Example 10, {[7-Hydroxy-4-(3-methoxy-phenyl)-2-phenyl-oxazolo[4,5-c]pyridine-6-carbonyl]-amino}-acetic acid], the inhibition at 200 µM rises from 97.3% to 99%.

Compared with `C[C@@H](NC(=O)c1ncc2c(-c3ccccc3)noc2c1O)C(=O)O` [Example 44, (R)-2-[(7-Hydroxy-3-phenyl-isoxazolo[4,5-c]pyridine-6-carbonyl)-amino]-propionic acid], `C[C@H](NC(=O)c1ncc2c(-c3ccccc3)noc2c1O)C(=O)O` [Example 43, (S)-2-[(7-Hydroxy-3-phenyl-isoxazolo[4,5-c]pyridine-6-carbonyl)amino]-propionic acid] is higher in inhibition at 200 µM: 82.2% for the first, 98.7% for the second.

First: O=C(O)CNC(=O)c1nc(C2CC2)c2c(-c3cccs3)noc2c1O [Example 59, [(4-Cyclopropyl-7-hydroxy-3-thiophen-2-yl-isoxazolo[4,5-c]pyridine-6-carbonyl)-amino]-acetic acid]
Second: COc1ccc(-c2noc3c(O)c(C(=O)NCC(=O)O)nc(C#N)c23)cc1 [Example 53, {[4-Cyano-7-hydroxy-3-(4-methoxy-phenyl)-isoxazolo[4,5-c]pyridine-6-carbonyl]-amino}-acetic acid]
The inhibition at 200 µM of the first is lower: 99.3% for the first, 99.4% for the second.

First: CCCCc1nc(C(=O)NCC(=O)O)c(O)c2oc(-c3ccccc3)nc12 [Example 7, [(4-Butyl-7-hydroxy-2-phenyl-oxazolo[4,5-c]pyridine-6-carbonyl)-amino]-acetic acid]
Second: O=C(O)CNC(=O)c1ncc2nc(-c3ccccc3)oc2c1O [Example 1, [(7-Hydroxy-2-phenyl-oxazolo[4,5-c]pyridine-6-carbonyl)-amino]-acetic acid]
The inhibition at 200 µM of the first is lower: 99.5% for the first, 99.8% for the second.

`O=C(O)CNC(=O)c1nc(-c2cn(Cc3ccccc3)nn2)c2c(-c3ccccc3)noc2c1O` [Example 63, {[4-(1-Benzyl-1H-[1,2,3]-triazol-4-yl)-7-hydroxy-3-phenyl-isoxazolo[4,5-c]pyridine-6-carbonyl]-amino}-acetic acid] and `C[C@H](NC(=O)c1ncc2onc(-c3ccccc3)c2c1O)C(=O)O` [Example 30, 2-[(4-Hydroxy-3-phenyl-isoxazolo[5,4-c]pyridine-5-carbonyl)-amino]-(S)-propionic acid] are the same in inhibition at 200 µM: 100% for the first, 100% for the second.

First: CCc1noc2c(O)c(C(=O)NCC(=O)O)ncc12 [Example 66, [(3-Ethyl-7-hydroxy-isoxazolo[4,5-c]pyridine-6-carbonyl)-amino]-acetic acid]
Second: O=C(O)CNC(=O)c1ncc2c(-c3ccc(Br)o3)noc2c1O [Example 49, {[3-(5-Bromo-furan-2-yl)-7-hydroxy-isoxazolo[4,5-c]pyridine-6-carbonyl]-amino}-acetic acid]
The inhibition at 200 µM of the first is higher: 99.1% for the first, 96.3% for the second.

Molecule `O=C(O)CNC(=O)c1ncc2c(C3=CCCCC3)noc2c1O` [Example 65, [(3-Cyclohex-1-enyl-7-hydroxy-isoxazolo[4,5-c]pyridine-6-carbonyl)-amino]-acetic acid] has an inhibition at 200 µM of 100%.
